Values quoted from earlier work as cited in patent US20040006111A1, “Transmucosal delivery of proton pump inhibitors” (priority 2002, published 2004).

[1] = omeprazole buccal adhesive tablets (sodium alginate, HPMC, magnesium oxide, croscarmellose sodium), absorption through the buccal mucosa

COc1ccc2[nH]c([S+]([O-])Cc3ncc(C)c(OC)c3C)nc2c1 (stereo not drawn) [omeprazole]
bioavailability (omeprazole buccal adhesive tablet formulation of Choi et al.): low | peak plasma concentration [1]: 370 ng/mL | time to generate peak plasma concentration [1]: 45 min
